For one test, the target named is T1, ALK5 (Homo sapiens, UniProt P36897).
T1 construct: purchased Reaction Biology Corp (Malvern, Pa.)
T1 sequence (P36897 34-503): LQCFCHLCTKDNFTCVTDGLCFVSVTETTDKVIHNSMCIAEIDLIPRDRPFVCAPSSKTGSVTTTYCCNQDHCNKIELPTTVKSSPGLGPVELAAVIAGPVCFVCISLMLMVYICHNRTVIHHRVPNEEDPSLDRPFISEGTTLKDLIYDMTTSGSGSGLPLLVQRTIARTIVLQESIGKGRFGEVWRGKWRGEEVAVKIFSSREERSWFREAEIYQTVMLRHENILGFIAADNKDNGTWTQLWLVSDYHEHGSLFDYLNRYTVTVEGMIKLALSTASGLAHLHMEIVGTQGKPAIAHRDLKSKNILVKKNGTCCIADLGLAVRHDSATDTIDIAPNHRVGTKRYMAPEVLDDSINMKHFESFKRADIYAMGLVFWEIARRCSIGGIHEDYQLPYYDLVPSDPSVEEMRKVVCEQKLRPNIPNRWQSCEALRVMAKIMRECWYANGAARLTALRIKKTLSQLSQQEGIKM
Kind of test: ALK5 enzyme inhibition assay (casein substrate, 10 uM ATP, 33P-ATP, filter-binding; Reaction Biology Corp). Format: biochemical. How it is done:
ALK5 enzyme inhibition assays were performed by Reaction Biology Corp (Malvern, Pa.). 1 mg/mL of peptide substrate (casein) and 10 uM ATP were prepared in a mixture of fresh reaction buffer. The kinase was delivered into the substrate solution which was gently mixed. Compounds in 100% DMSO were added to the kinase reaction mixture by Acoustic technology (Echo550; nanoliter range) and the mixture was incubated for 20 min at room temperature. ^33P-ATP (Specific activity 10 uCi/uL) was added into the reaction mixture to initiate the reaction and the reaction mixture was incubated for 2 hours at room temperature. Radioactivity was detected by filter-binding method and kinase activity data were expressed as the percent remaining kinase activity in test samples compared to vehicle (dimethyl sulfoxide) reactions. IC50 values and curve fits were obtained using Prism (GraphPad Software).

In test [1] the test system is TGFβ/SMAD Signaling Pathway SBE reporter cell line. The test can be described thus: TGFb reporter assay in HEK293 SBE-LUC reporter cells (luciferase). Format: cell-based. The conditions noted are these: Homo sapiens, key of the table says IC50, read-out: EC50 (the source's name). How it is done: TGFβ/SMAD Signaling Pathway SBE reporter cell line was obtained from BPS Bioscience. Cells are passed, expanded, and stored in liquid nitrogen as per the supplier's instructions with the exception that growth media is changed to DMEM-C with Geneticin (DMEM supplemented with 10% fetal bovine serum, 1×NEAA, 1 mM Pyruvate, 2 mM glutamine, 50 μg/mL penicillin, 50 U/mL streptomycin and 400 μg/mL of Geneticin). The assay media is MEM supplemented with 0.5% fetal bovine serum, 1×NEAA, 1 mM Pyruvate, 50 μg/mL penicillin and 50 U/mL streptomycin.
Compounds are assayed to measure their activity as ALK5 inhibitors.
The HEK293 SBE-LUC reporter cells from Example 15 were grown in DMEM-C with Geneticin (DMEM supplemented with […], 1×NEAA, 1 mM Pyruvate, 2 mM glutamine, 50 μg/mL penicillin, 50 U/mL streptomycin and 400 ug/mL of Geneticin). The assay media was MEM supplemented with 0.5% fetal bovine serum, 1×NEAA, 1 mM Pyruvate, 50 μg/mL penicillin and 50 U/mL streptomycin.
The HEK293 SBE-LUC reporter cells were harvested from the tissue culture flasks by incubation in small quantity of Versene at room temperature for three to five minutes after the media in the flask is removed and cells rinsed with PBS. Cells were counted and diluted in the assay media at ˜0.8×10^6 cells/mL then 50 uL/well were added to 96-well assay plate. Test samples (at desired concentrations diluted in assay media) were added to assay plate containing the 50 uL/well of cells (or media only), 50 uL per well, and incubated for 5-6 hours at 37° C. in a 5% CO2 humidified incubator. After that time, 15 uL of TGFb diluted to 12.5 ng/mL in the assay media was added to the plate. Controls included TGFb titration (from 25 to 0 ng/mL) without inhibitors, and media only (without cells, inhibitor or TGFb). Plates were incubated at 37° C. in a 5% CO2 humidified incubator for 18h. Luciferase substrate solution was subsequently added at 75 uL per well, incubated in dark with shaking at room temperature for 10 min, and luminescence was measured using a luminometer.
(Reporter assays use an easily measured gene product as a stand-in for the process of interest.)

In the case of `Cc1cccc(-c2nc(CNCc3ccccc3-c3ccccc3CN)[nH]c2-c2ccc3ncnn3c2)n1` [Compound 32], the IC50 (at ALK5 (Table 11); in test [1]) was 100 to 1000 nM in each case.

Consider `Cc1cccc(-c2nc(CNCCc3ccc(F)cc3)[nH]c2-c2ccc3ncnn3c2)n1` [Compound 62], for which the figures for the IC50 (at ALK5 (Table 11); in test [1]) were 100 to 1000 nM and 0.1 to 10 nM, respectively.

With `Cc1cccc(-c2nc(CNCc3cccc(-c4ccccc4)c3C)[nH]c2-c2ccc3ncnn3c2)n1` [Compound 49], the figures for the IC50 (at ALK5 (Table 11); in test [1]) were 100 to 1000 nM and 10 to 100 nM, respectively.

As to `Cc1cccc(-c2nc(CNC(c3ccccc3)c3ccccc3)[nH]c2-c2ccc3ncnn3c2)n1` [Compound 13], the IC50 on ALK5 (Table 11) is 50 to 100 nM; in test [1], 0.1 to 10 nM.

As for `Cc1cccc(-c2nc(CNCc3ccccc3C)[nH]c2-c2ccc3ncccc3n2)n1` [Compound 83], the results for the IC50 (on ALK5 (Table 11); in test [1]) were 50 to 100 nM and 0.1 to 10 nM, respectively.

Consider `COc1cccc(CNCc2nc(-c3cccc(C)n3)c(-c3ccc4ncnn4c3)[nH]2)c1C` [Compound 46], for which the IC50 at ALK5 (Table 11) lay in the range of 50 to 100 nM; in test [1], 0.1 to 10 nM.

On to `Cc1cccc(-c2nc(CNCc3ccc(Cl)c(Cl)c3)[nH]c2-c2ccc3ncnn3c2)n1` [Compound 4], for which the IC50 (at ALK5 (Table 11); in test [1]) was 100 to 1000 nM in each case.

For `Cc1cccc(-c2nc(CNCc3ccccc3N(C)C)[nH]c2-c2ccc3ncnn3c2)n1` [Compound 25], the IC50 was in the range of 100 to 1000 nM at ALK5 (Table 11) and 0.1 to 10 nM in test [1].

With `Cc1cccc(-c2nc(CNCCNc3ccccc3)[nH]c2-c2ccc3ncnn3c2)n1` [Compound 66], the IC50 on ALK5 (Table 11) fell in the range of 100 to 1000 nM; in test [1], 0.1 to 10 nM.

As to `CCc1ccccc1CNCc1nc(-c2cccc(C)n2)c(-c2ccc3ncnn3c2)[nH]1` [Compound 22], the IC50 is 0.1 to 50 nM on ALK5 (Table 11) and 0.1 to 10 nM in test [1].

For the compound `COc1cccc(CNCc2nc(-c3cccc(C)n3)c(-c3ccc4ncnn4c3)[nH]2)c1` [Compound 7], the IC50 lay within 100 to 1000 nM on ALK5 (Table 11) and 0.1 to 10 nM in test [1].

On to `Cc1cccc(-c2nc(CNCc3ccccc3-c3ccccc3)[nH]c2-c2ccc3c(c2)OCO3)n1` [Compound 71], for which the IC50 at ALK5 (Table 11) was in the range of 0.1 to 50 nM; in test [1], 100 to 1000 nM.

`Cc1cccc(-c2nc(CNCCCc3ccccc3)[nH]c2-c2ccc3ncnn3c2)n1` [Compound 64]: the values for the IC50 (at ALK5 (Table 11); in test [1]) were 100 to 1000 nM and 0.1 to 10 nM, respectively.

As for `Cc1cccc(-c2nc(CNC3CCCCC3C)[nH]c2-c2ccc3ncnn3c2)n1` (centres unmarked) [Compound 1.16], the IC50 at ALK5 (Table 12) lay within 100 to 1000 nM; in test [1], 10 to 100 nM.

As to `Cc1cccc(-c2nc(CNc3cccc4c3CCC4N)[nH]c2-c2ccc3ncnn3c2)n1` (centres unmarked) [Compound 1.6], the IC50 (at ALK5 (Table 12); in test [1]) was 100 to 1000 nM throughout.

In the case of `Cc1cccc(-c2nc(C34CCC(N)(CC3)CC4)[nH]c2-c2ccc3ncnn3c2)n1` [Compound 1.55], the IC50 (on ALK5 (Table 12); in test [1]) was 1000 to 10000 nM in each case.

In the case of `Cc1cccc(-c2nc(CN[C@H]3CCc4ccccc43)[nH]c2-c2ccn3ncnc3c2)n1` [Compound 1.34], the IC50 (on ALK5 (Table 12); in test [1]) was 100 to 1000 nM throughout.

On to `Cc1cccc(-c2nc(CNCc3ccccc3-c3ccc(F)cc3)[nH]c2-c2ccc3ncnn3c2)n1` [Compound 35], for which the values for the IC50 (on ALK5 (Table 11); in test [1]) were 0.1 to 50 nM and 0.1 to 10 nM, respectively.

For the compound `Cc1cccc(-c2nc(CN[C@@H](C)c3ccccc3)[nH]c2-c2ccc3ncnn3c2)n1` [Compound 12], the IC50 on ALK5 (Table 11) lay in the range of 1000 to 10000 nM; in test [1], 100 to 1000 nM.

As for `Cc1cccc(-c2nc(CNCc3ccccc3C#N)[nH]c2-c2ccc3ncnn3c2)n1` [Compound 20], the IC50 on ALK5 (Table 11) lay in the range of 1000 to 10000 nM; in test [1], 100 to 1000 nM.

For `Cc1cccc(-c2nc(CNCc3c(Cl)cccc3Cl)[nH]c2-c2ccc3ncnn3c2)n1` [Compound 6], the results for the IC50 (on ALK5 (Table 11); in test [1]) were 0.1 to 50 nM and 0.1 to 10 nM, respectively.

With `Cc1cccc(-c2nc(CNCc3ccccc3-c3cccc(CNC(=O)OC(C)(C)C)c3)[nH]c2-c2ccc3ncnn3c2)n1` [Compound 30], the IC50 (on ALK5 (Table 11); in test [1]) was 100 to 1000 nM each time.

For the compound `Cc1cccc(-c2nc(CNCCN(C)c3ccccc3)[nH]c2-c2ccc3ncccc3n2)n1` [Compound 85], the IC50 at ALK5 (Table 11) lay within 50 to 100 nM; in test [1], 0.1 to 10 nM.

On to `Cc1cccc(-c2nc(CNCCc3ccc(F)cc3F)[nH]c2-c2ccc3ncnn3c2)n1` [Compound 63], for which the figures for the IC50 (at ALK5 (Table 11); in test [1]) were 100 to 1000 nM and 0.1 to 10 nM, respectively.

Turning to `Cc1cccc(-c2nc(CNCc3ccccc3C)[nH]c2-c2ccc3nccnc3c2)n1` [Compound 86], the IC50 on ALK5 (Table 11) fell in the range of 0.1 to 50 nM; in test [1], 0.1 to 10 nM.

For the compound `Cc1cccc(-c2nc(CNCc3ccccc3Oc3ccccc3)[nH]c2-c2ccc3ncnn3c2)n1` [Compound 53], the figures for the IC50 (on ALK5 (Table 11); in test [1]) were 0.1 to 50 nM and 0.1 to 10 nM, respectively.

Consider `Cc1cccc(-c2nc(CNC34CC(C3)C4)[nH]c2-c2ccc3ncnn3c2)n1` [Compound 1.9], for which the IC50 on ALK5 (Table 12) was in the range of 1000 to 10000 nM; in test [1], 10 to 100 nM.

Take `Cc1cccc(-c2nc(CN[C@H]3CCCC[C@@H]3F)[nH]c2-c2ccn3ncnc3c2)n1` [Compound 1.32]: the figures for the IC50 (at ALK5 (Table 12); in test [1]) were 10 to 100 nM and 100 to 1000 nM, respectively.

As to `Cc1cccc(-c2nc(CN[C@H](C)c3ccccc3)[nH]c2-c2ccc3ncnn3c2)n1` [Compound 11], the IC50 on ALK5 (Table 11) lay within 100 to 1000 nM; in test [1] it was 10 to 100 nM.

Consider `COc1ccccc1CNCc1nc(-c2cccc(C)n2)c(-c2ccc3ncnn3c2)[nH]1` [Compound 17], for which the IC50 was 50 to 100 nM on ALK5 (Table 11) and 10 to 100 nM in test [1].

As for `Cc1cccc(-c2nc(CNCCc3ccccc3)[nH]c2-c2ccc3ncnn3c2)n1` [Compound 52], the IC50 at ALK5 (Table 11) is 50 to 100 nM; in test [1], 0.1 to 10 nM.

Regarding `Cc1cccc(-c2nc(CNCc3ccccc3-c3ccncc3)[nH]c2-c2ccc3ncnn3c2)n1` [Compound 42], the values for the IC50 (on ALK5 (Table 11); in test [1]) were 100 to 1000 nM and 10 to 100 nM, respectively.

Turning to `COc1ccc(OC)c(CNCc2nc(-c3cccc(C)n3)c(-c3ccc4ncnn4c3)[nH]2)c1` [Compound 9], the IC50 is 100 to 1000 nM at ALK5 (Table 11) and 10 to 100 nM in test [1].

`COC(=O)[C@H](NCc1nc(-c2cccc(C)n2)c(-c2ccc3ncnn3c2)[nH]1)c1ccccc1` [Compound 15]: the IC50 at ALK5 (Table 11) was 50 to 100 nM; in test [1] it was 100 to 1000 nM.

Take `Cc1cccc(-c2nc(CNCc3ccccc3Oc3cccnc3)[nH]c2-c2ccc3ncnn3c2)n1` [Compound 54]: the IC50 at ALK5 (Table 11) was 50 to 100 nM; in test [1], 0.1 to 10 nM.

Consider `Cc1cccc(-c2nc(CNc3cccc4c3CNC4)[nH]c2-c2ccn3ncnc3c2)n1` [Compound 1.31], for which the IC50 (at ALK5 (Table 12); in test [1]) was 100 to 1000 nM throughout.

As for `Cc1cccc(-c2nc(CNCc3ccccc3-c3cccnc3)[nH]c2-c2ccc3ncnn3c2)n1` [Compound 41], the IC50 was in the range of 50 to 100 nM on ALK5 (Table 11) and 0.1 to 10 nM in test [1].

Regarding `Cc1cccc(CNCc2nc(-c3cccc(C)n3)c(-c3ccc4ncnn4c3)[nH]2)c1` [Compound 50], the IC50 fell in the range of 100 to 1000 nM on ALK5 (Table 11) and 10 to 100 nM in test [1].

On to `Cc1cccc(-c2nc(CNCc3ccccc3)[nH]c2-c2ccc3ncnn3c2)n1` [Compound 1, 1-(5-([1,2,4]triazolo[1,5-a]pyridin-6-yl)-4-(6-methylpyridin-2-yl)-1H-imidazol-2-yl)-N-benzylmethanamine], for which the results for the IC50 (at ALK5 (Table 11); in test [1]) were 100 to 1000 nM and 0.1 to 10 nM, respectively.

In the case of `Cc1cccc(-c2nc(CN[C@@H](CO)c3ccccc3)[nH]c2-c2ccc3ncnn3c2)n1` [Compound 14], the IC50 is 50 to 100 nM at ALK5 (Table 11) and 10 to 100 nM in test [1].

These data come from patent US20210130473A1, “TGFßR1 INHIBITOR-ASGR ANTIBODY CONJUGATES AND USES THEREOF” (Silverback Therapeutics, Inc., priority 2019, published 2021).
